Reference: patent US20090186832A1 (priority 2008, published 2009)
Several values for one entry are separate records, joined by “and”; a condition that tells them apart may be missing. Equal values may be shown once. Where a name gives a salt, the structure may show the parent alone. Read-outs that look alike come from different tables or passages of the source. Marks after values point to notes of the source that are not given here.

How the values were obtained:
[1] = for Meptazinol T>50% Cmax: analyte meptazinol, oral 1 mg meptazinol free base equivalents/kg
[2] = dog, in vivo
[3] = for Simulated gastric fluid (pH 1.1): % remaining after 2 h/37° C. / Simulated intestinal fluid (pH 6.8): % remaining after 2 h/37° C.: simulated gi fluid
[4] = dog, in vivo; for Cmax (mean ng/mL ± SD) / AUC (mean ngh/mL ± SD): po
[5] = cited from earlier work
[6] = plasma meptazinol, oral 1 mg meptazinol free base/kg, group 1 dogs (G1)

CCC1(c2cccc(OC(=O)NC(C)C(=O)NC(C)C(=O)O)c2)CCCCN(C)C1.O=C(O)C(F)(F)F (mixture of isomers) [Meptazinol ala-ala dipeptide TFA salt]
AUC (mean ngh/mL ± SD) [1, 6]: 11.4 ± 2.9 ngh/mL | Cmax (mean ng/mL ± SD) [1, 6]: 2.73 ± 1.28 ng/mL

CCC1(c2cccc(OC(=O)NC(C)C(=O)O)c2)CCCCN(C)C1.Cl (mixture of isomers) [Meptazinol alanine carbamate HCl salt]
Mean relative bioavailability % ([1]; dog, in vivo): 116% | AUC (mean ngh/mL ± SD) ([1]; dog, in vivo, po): 16.3 ± 3.6 | Cmax (mean ng/mL ± SD) ([1]; dog, in vivo, po): 5.2 ± 1.59 ng/mL

CCC1(c2cccc(OC(=O)NC(CC(=O)O)C(=O)O)c2)CCCCN(C)C1.O=C(O)C(F)(F)F (mixture of isomers) [Meptazinol apartic acid carbamate TFA salt]
Mean relative bioavailability % ([1]; dog, in vivo): 273% | AUC (mean ngh/mL ± SD), *AUC0-t ([1]; dog, in vivo, po): 34.8* ± 1.0 | Cmax (mean ng/mL ± SD) ([1]; dog, in vivo, po): 2.65 ± 0.34 ng/mL

CCC1(c2cccc(OC(=O)NC(CC(C)C)C(=O)O)c2)CCCCN(C)C1.O=C(O)C(F)(F)F (mixture of isomers) [Meptazinol leucine carbamate TFA salt]
Mean relative bioavailability % ([1]; dog, in vivo): 70% | AUC (mean ngh/mL ± SD) ([1]; dog, in vivo, po): 9.27 ± 1.6 | Cmax (mean ng/mL ± SD) ([1]; dog, in vivo, po): 3.32 ± 1.4 ng/mL

CCC1(c2cccc(OC(=O)NC(Cc3c[nH]c4ccccc34)C(=O)O)c2)CCCCN(C)C1.O=C(O)C(F)(F)F (mixture of isomers) [Meptazinol tryptophan carbamate TFA salt]
Mean relative bioavailability % ([1]; dog, in vivo): 149% | AUC (mean ngh/mL ± SD), *AUC0-t ([1]; dog, in vivo, po): 19.1* ± 8.9 | Cmax (mean ng/mL ± SD) ([1]; dog, in vivo, po): 8.21 ± 2.56 ng/mL

CCC1(c2cccc(OC(=O)NC(Cc3ccc(O)cc3)C(=O)O)c2)CCCCN(C)C1.O=C(O)C(F)(F)F (mixture of isomers) [Meptazinol tyrosine carbamate TFA salt]
Mean relative bioavailability % ([1]; dog, in vivo): 52% | AUC (mean ngh/mL ± SD), *AUC0-t ([1]; dog, in vivo, po): 6.61* ± 0.70 | Cmax (mean ng/mL ± SD) ([1]; dog, in vivo, po): 2.23 ± 0.16 ng/mL

CCC1(c2cccc(OC(=O)NC(C(=O)OC)C(C)C)c2)CCCCN(C)C1.Cl (mixture of isomers) [Meptazinol valine carbamate methyl ester HCl]
Mean relative bioavailability % ([1]; dog, in vivo): 606% | AUC (mean ngh/mL ± SD) ([1]; dog, in vivo, po): 78.1 ± 17.1 | Cmax (mean ng/mL ± SD) ([1]; dog, in vivo, po): 44.8 ± 8.2 ng/mL

CCC1(c2cccc(OC(=O)NCC(=O)O)c2)CCCCN(C)C1.O=C(O)C(F)(F)F (racemic) [Meptazinol glycine carbamate TFA salt]
Mean relative bioavailability % ([1]; dog, in vivo): 79% | AUC (mean ngh/mL ± SD), *AUC0-t ([1]; dog, in vivo, po): 10.2* ± 3.4 | Cmax (mean ng/mL ± SD) ([1]; dog, in vivo, po): 2.51 ± 0.90 ng/mL

CCC(C)[C@@H](NC(=O)Oc1ccc2c3c1OC1[C@@]4(OC)CC[C@@]5(C[C@@H]4[C@@](C)(O)C(C)(C)C)[C@@H](C2)N(CC2CC2)CC[C@]315)C(=O)O (stereo partly drawn) [Buprenorphine isoleucine carbamate]
Cmax (mean ng/mL ± SD) ([2]; beagle, po): 1.25 ± 0.51 ng/mL | Mean relative bioavailability % ([2]; beagle, po): 110% | AUC (mean ngh/mL ± SD) [2]: 13.6 ± 3.9

COC12CCC3(CC1C(C)(O)C(C)(C)C)C1Cc4ccc(OC(=O)NC(CCCCN)C(=O)O)c5c4C3(CCN1CC1CC1)C2O5 (stereo not drawn) [Buprenorphine lysine carbamate]
AUC (mean ngh/mL ± SD) [2]: 4.70 | Cmax (mean ng/mL ± SD) [2]: 0.25 ± 0.19 ng/mL | Mean relative bioavailability % [2]: 38%

COC12CCC3(CC1C(C)(O)C(C)(C)C)C1Cc4ccc(OC(=O)NC(Cc5ccccc5)C(=O)O)c5c4C3(CCN1CC1CC1)C2O5 (stereo not drawn) [Buprenorphine phenylalanine carbamate]
pH 10.0 buffer: % remaining after 2 h/20° C. [3]: 74% | Distilled water (pH 5.9): % remaining after 2h/20° C. [3]: 99% | Simulated gastric fluid (pH 1.1): % remaining after 2 h/37° C. [3]: 100% | Simulated intestinal fluid (pH 6.8): % remaining after 2 h/37° C. [3]: 45% | AUC (mean ngh/mL ± SD) [2]: 9.66 ± 1.92 | Cmax (mean ng/mL ± SD) [2]: 0.86 ± 0.32 ng/mL | Mean relative bioavailability % [2]: 84.5%

COC12CCC3(CC1C(C)(O)C(C)(C)C)C1Cc4ccc(OC(=O)NC(CC(=O)O)C(=O)O)c5c4C3(CCN1CC1CC1)C2O5 (stereo not drawn) [Buprenorphine-Asp-Carbamate]
pH 10.0 buffer: % remaining after 2 h/20° C. [3]: 85% | Distilled water (pH 5.9): % remaining after 2h/20° C. [3]: 100% | Simulated gastric fluid (pH 1.1): % remaining after 2 h/37° C. [3]: 100% | Simulated intestinal fluid (pH 6.8): % remaining after 2 h/37° C. [3]: 99%

CCC(C)[C@H](NC(=O)Oc1cccc(C2(CC)CCCCN(C)C2)c1)C(=O)O (stereo partly drawn) [Meptazinol isoleucine carbamate TFA salt]
AUC (mean ngh/mL ± SD) [1, 6]: 34.9 ± 11 ngh/mL

CCC1(c2cccc(OC(=O)N[C@H](C(=O)N[C@@H](C)C(=O)O)C(C)C)c2)CCCCN(C)C1 (stereo partly drawn) [Meptazinol val-ala dipeptide TFA salt]
AUC (mean ngh/mL ± SD) [1, 6]: 36.5 ± 13 ngh/mL

CCC1(c2cccc(OC(=O)N[C@H](C(=O)NCC(=O)O)C(C)C)c2)CCCCN(C)C1 (stereo partly drawn) [Meptazinol val-gly dipeptide TFA salt]
AUC (mean ngh/mL ± SD) [1, 6]: 39.9 ± 17 ngh/mL

CCC1(c2cccc(OC(=O)N[C@H](C(=O)N[C@H](C(=O)O)C(C)C)C(C)C)c2)CCCCN(C)C1 (stereo partly drawn) [Meptazinol val-val dipeptide TFA salt, meptazinol-(S)-valine-(S)-valine carbamate trifluoroacetate]
AUC (mean ngh/mL ± SD) [1, 6]: 45.0 ± 12 ngh/mL

CCC1(c2cccc(OC(=O)N[C@H](C(=O)O)C(C)C)c2)CCCCN(C)C1 (stereo partly drawn) [Meptazinol valine carbamate HCl, 2-[3-(3-Ethyl-1-methyl-azepin-3-yl)-phenoxycarbonylamino]-3-methyl-butyric acid hydrochloride]
Meptazinol T>50% Cmax ([1]; individual dogs 1-5, hydrochloride): 0.5 h (3×) and 1.5 h (2×) | Meptazinol T>50% Cmax ([1]; median value): 0.5^a h | AUC (mean ngh/mL ± SD) ([1]; plasma meptazinol, oral 1 mg meptazinol free base/kg, group 2 dogs (G2), hydrochloride): 67.6 ± 9.2 ngh/mL

CCC1(c2cccc(OC(=O)N[C@H](C(=O)O)C(C)C)c2)CCCCN(C)C1 (stereo partly drawn) [Meptazinol valine carbamate TFA salt, meptazinol-(S)-valine carbamate trifluoroacetate]
AUC (mean ngh/mL ± SD) [1, 6]: 67.7 ± 25 ngh/mL

CCC1(c2cccc(OC(=O)N[C@H](C(=O)O)C(C)C)c2)CCCCN(C)C1 (stereo partly drawn) [Meptazinol valine carbamate camsylate]
AUC (mean ngh/mL ± SD) [1, 6]: 62.4 ± 20.4 ngh/mL

CCC1(c2cccc(OC(=O)N[C@H](C(=O)O)C(C)C)c2)CCCCN(C)C1 (stereo partly drawn) [Meptazinol valine carbamate zwitterion]
AUC (mean ngh/mL ± SD) ([1]; plasma meptazinol, oral 1 mg meptazinol free base/kg, group 2 dogs (G2)): 84.9 ± 40.6 ngh/mL

CCC1(c2cccc(OC(=O)N[C@H](C(=O)O)C(C)C)c2)CCCCN(C)C1 (stereo partly drawn) [Meptazinol-Val-Carbamate]
pH 10.0 buffer: % remaining after 2 h/20° C. [3]: 66%

CN1CC[C@]23c4c5ccc(O)c4O[C@H]2C(=O)CC[C@@]3(O)[C@H]1C5 [Oxymorphone HCl, reference compound]
Cmax (mean ng/mL ± SD) ([4]; Beagle, 0.5 mg/kg): 3.8 ± 0.77 ng/mL | AUC (mean ngh/mL ± SD) [4]: 12.2 ± 1.6

CN1CC[C@]23c4c5ccc(OC(=O)NCC(=O)O)c4O[C@H]2C(=O)CC[C@@]3(O)[C@H]1C5.O=C(O)C(F)(F)F [Oxymorphone glycine carbamate TFA]
Mean relative bioavailability % [4]: 554% | AUC (mean ngh/mL ± SD) [4]: 67.9 ± 34.1 | Cmax (mean ng/mL ± SD) [4]: 21 ± 10.9 ng/mL

CSCC[C@@H](NC(=O)Oc1ccc2c3c1OC1C(=O)CC[C@@]4(O)[C@@H](C2)N(C)CC[C@]314)C(=O)O (stereo partly drawn) [Oxymorphone methionine carbamate TFA]
Mean relative bioavailability % ([4]; Beagle, 0.5 mg/kg): 436% | Cmax (mean ng/mL ± SD) ([4]; Beagle, 0.5 mg/kg): 13.8 ± 4.6 ng/mL | AUC (mean ngh/mL ± SD) [4]: 55.4 ± 15.2

CN1CC[C@]23c4c5ccc(OC(=O)N[C@@H](Cc6ccccc6)C(=O)O)c4O[C@H]2C(=O)CC[C@@]3(O)[C@H]1C5.Cl [Oxymorphone phenylalanine carbamate HCl]
Mean relative bioavailability % [4]: 244% | AUC (mean ngh/mL ± SD) [4]: 29.5 ± 2.2 | Cmax (mean ng/mL ± SD) [4]: 5.45 ± 1.32 ng/mL

CN1CC[C@]23c4c5ccc(OC(=O)N[C@@H](Cc6ccc(O)cc6)C(=O)O)c4O[C@H]2C(=O)CC[C@@]3(O)[C@H]1C5.O=C(O)C(F)(F)F [Oxymorphone tyrosine carbamate TFA]
Mean relative bioavailability % [4]: 157% | AUC (mean ngh/mL ± SD) [4]: 17.3 ± 3.0 | Cmax (mean ng/mL ± SD) [4]: 4.62 ± 1.12 ng/mL

CSCC[C@@H](NC(=O)Oc1ccc2c3c1OC1C(=O)CC[C@@]4(O)[C@@H](C2)N(C)CC[C@]314)C(=O)O (stereo partly drawn) [Oxymorphone-Methio-Carbamate]
pH 10.0 buffer: % remaining after 2 h/20° C. [3]: 8% | Distilled water (pH 5.9): % remaining after 2h/20° C. [3]: 100% | Simulated gastric fluid (pH 1.1): % remaining after 2 h/37° C. [3]: 100% | Simulated intestinal fluid (pH 6.8): % remaining after 2 h/37° C. [3]: 96%

CN1CC[C@]23c4c5ccc(OC(=O)N[C@@H](Cc6ccccc6)C(=O)O)c4O[C@H]2C(=O)CC[C@@]3(O)[C@H]1C5 [Oxymorphone-Phe-Carbamate]
pH 10.0 buffer: % remaining after 2 h/20° C. [3]: 17% | Distilled water (pH 5.9): % remaining after 2h/20° C. [3]: 100% | Simulated gastric fluid (pH 1.1): % remaining after 2 h/37° C. [3]: 100% | Simulated intestinal fluid (pH 6.8): % remaining after 2 h/37° C. [3]: 82%

CCC1(c2cccc(O)c2)CCCCN(C)C1 (stereo not drawn) [meptazinol, 3-(3-Ethyl-1-methyl-azepan-3-yl)-phenol]
range of observed oral bioavailabilities ([5]; oral, Norbury et al. (1983)): 2-20% | reported mean bioavailability values ([5]; oral, Norbury et al. (1983)): 4-9% | oral dose removed as it passes through the liver (first pass metabolism) ([5]; oral): up to 98% | bioavailability ([5]; rectal formulation, Murray et al. (1989)): 15-20% | relative standard deviation (variability in meptazinol levels, mean AUC) ([1]; beagle, dog, in vivo, po): 26% | Meptazinol AUC ([1]; beagle, dog, in vivo, po, 1 mg): 12.8±3.4

Oxymorphone isoleucine carbamate TFA
Mean relative bioavailability % [4]: 570% | AUC (mean ngh/mL ± SD) [4]: 65.8 ± 32 | Cmax (mean ng/mL ± SD) [4]: 17.2 ± 9.9 ng/mL

Oxymorphone valine carbamate TFA
Mean relative bioavailability % [4]: 816% | AUC (mean ngh/mL ± SD) [4]: 51.2 ± 35 | Cmax (mean ng/mL ± SD) [4]: 14.6 ± 8.69 ng/mL

Oxymorphone-Isoleu-Carbamate
pH 10.0 buffer: % remaining after 2 h/20° C. [3]: 36% | Distilled water (pH 5.9): % remaining after 2h/20° C. [3]: 100% | Simulated gastric fluid (pH 1.1): % remaining after 2 h/37° C. [3]: 100% | Simulated intestinal fluid (pH 6.8): % remaining after 2 h/37° C. [3]: 97%

Oxymorphone-Val-Carbamate
pH 10.0 buffer: % remaining after 2 h/20° C. [3]: 32% | Distilled water (pH 5.9): % remaining after 2h/20° C. [3]: 100% | Simulated gastric fluid (pH 1.1): % remaining after 2 h/37° C. [3]: 100% | Simulated intestinal fluid (pH 6.8): % remaining after 2 h/37° C. [3]: 97%
